Where “and” joins values, the source holds several entries; their conditions need not be identical. Equal entries are not always repeated.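 Compound exposure: 48 hours, 5 concentrations, 96-well plates. GI50 = concentration required for 50% inhibition of growth. The concentration for full growth arrest is given as TGI.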
What was measured:
Assay in all cases: NCI tumour cell line growth inhibition, 48 h
[1] = system: OVCAR-3 ovarian
[2] = system: A549 NSCLC
[3] = system: LOX IMVI melanoma
[4] = system: UO-31 renal
[5] = system: HL-60(TB) leukemia
[6] = system: A498 renal
[7] = system: KM12 colon
[8] = system: COLO 205 colon
[9] = system: PC-3 prostate
[10] = system: DU-145 prostate

SMILES | TGI [1] | TGI [2] | TGI [3] | TGI [4] | TGI [5] | TGI [6] | TGI [7] | TGI [8] | GI50 [8] | GI50 [1] | GI50 [2] | GI50 [3] | GI50 [4] | GI50 [9] | TGI [9] | GI50 [5] | GI50 [7] | GI50 [10] | TGI [10] | GI50 [6]
Cc1[nH]c(=O)[nH]c1C(=O)c1ccc(-n2ccnc2)cc1 | > 100 µM | > 100 µM | > 100 µM | > 100 µM | > 100 µM | > 100 µM | > 100 µM | – | – | – | – | – | – | – | – | – | – | – | – | –
N#CC1(C#N)C2C=CC(c3coc4cccc2c34)C1(C#N)C#N (stereo unspecified) | 29.9 µM | 37.5 µM | 28.7 µM | 25.6 µM | 3.44 µM | 34.6 µM | 33.8 µM | 4.4 µM | – | – | – | – | – | – | – | – | – | – | – | –
C=C1C(=O)O[C@H]2[C@H]1CC/C(COC(=O)C(C)c1ccc(CC(C)C)cc1)=C\CC[C@@]1(C)O[C@@H]21 (stereo partly specified) | 2.87 µM | 3.65 µM | 3.01 µM | 2.54 µM | 2.68 µM | – | 3.69 µM | 4.1 µM | 1.91 µM | 1.5 µM | 1.8 µM | 1.54 µM | 1.28 µM | 0.891 µM | 2.17 µM | 0.647 µM | 1.79 µM | 1.59 µM | 2.95 µM | –
CCc1cc(CCC(=O)Nc2ccccc2[N+](=O)[O-])[nH]c(=S)n1 | > 100 µM | > 100 µM | > 100 µM | > 100 µM | > 100 µM | – | > 100 µM | > 100 µM | – | – | – | – | – | – | – | – | – | – | – | –
NS(=O)(=O)NCCNc1nonc1C(=Nc1ccc(F)c(Br)c1)NO | > 100 µM | > 100 µM | > 100 µM | > 100 µM | > 100 µM | – | > 100 µM | > 100 µM | 47.6 µM | 34.6 µM | 68.9 µM | 27.9 µM | 24.8 µM | 31.8 µM | > 100 µM | 36.9 µM | 34.8 µM | 51.2 µM | > 100 µM | –
Cn1c(N)nc(=O)c2c1N(C1OC(CO)C(O)C1O)CN2Cc1ccccc1 (stereo unspecified) | > 100 µM | > 100 µM | – | > 100 µM | > 100 µM | > 100 µM | > 100 µM | > 100 µM | – | – | – | – | – | – | – | – | – | – | – | –
C=C1C(OC(=O)/C=C/c2ccccc2)CC(OC(C)=O)C2(C)C1CC1CC(OC(C)=O)C(C)=C(C(OC(C)=O)C2OC(C)=O)C1(C)C (stereo unspecified) | – | > 100 µM | > 100 µM | > 100 µM | – | > 100 µM | > 100 µM | > 100 µM | – | – | – | – | – | – | – | – | – | – | – | –
COc1ccc(/C=C2\CCC(CCN(C)C)(C3=CCCC3)C2=O)cc1Br (stereo unspecified) | 19.3 µM | 24 µM | 15.4 µM | 17.6 µM | 4.63 µM | 23.5 µM | 14.9 µM | 3.01 µM | – | – | – | – | – | – | – | – | – | – | – | –
O=C(O/N=C1/CCC/C1=C\c1ccccc1)c1ccc(Cl)c(Cl)c1 | > 100 µM | > 100 µM | > 100 µM | > 100 µM | > 100 µM | > 100 µM | > 100 µM | > 100 µM | – | – | – | – | – | – | – | – | – | – | – | –
CCOC(=O)c1cc(-c2ccccc2)[nH]c1N/N=C/c1ccc(Cl)cc1 | > 100 µM | > 100 µM | > 100 µM | > 100 µM | 63.8 µM | – | > 100 µM | > 100 µM | 42.5 µM | > 100 µM | 81.5 µM | 62.1 µM | 73.6 µM | 21.8 µM | > 100 µM | 29.5 µM | > 100 µM | > 100 µM | > 100 µM | –
CCOC(=O)c1cnc2c(ccc3ncccc32)c1NCCCN(CC)CC | > 100 µM | > 100 µM | 33.6 µM | > 100 µM | 38.4 µM | > 100 µM | > 100 µM | > 100 µM | – | – | – | – | – | – | – | – | – | – | – | –
COC(=O)C12OCC34C(CC5C(C)C6=CC(=O)OC6=CC5(C)C3C(O)C1O)OC(=O)C(O)C24 (stereo unspecified) | 3.61 µM | 23.2 µM | 0.288 µM and 1.42 µM | 61.8 µM | 4.27 µM | 0.507 µM and 1.49 µM | 12.5 µM | – | 0.252 µM | 0.282 µM | 0.415 µM | 0.0542 µM | – | – | – | – | 0.331 µM | – | – | 0.266 µM
CCOC(=O)C(CC/C=C\c1ccccc1)N1CCC[C@H]1C(=O)OC (stereo partly specified) | > 100 µM | > 100 µM | > 100 µM | > 100 µM | > 100 µM | > 100 µM | > 100 µM | > 100 µM | – | – | – | – | – | – | – | – | – | – | – | –
Cc1cccc2c1CCC21OC(=O)c2c1ccc1ccccc21 (stereo unspecified) | > 100 µM | > 100 µM | > 100 µM | > 100 µM | 66 µM | 53.4 µM | > 100 µM | > 100 µM | – | – | – | – | – | – | – | – | – | – | – | –
O=C(NO)[C@@H](Cc1ccccc1)NS(=O)(=O)c1ccc(-c2ccccc2)cc1 | > 25 µM | > 25 µM | > 25 µM | > 25 µM | – | > 25 µM | > 25 µM | > 25 µM | > 25 µM | 13.6 µM | > 25 µM | 11.9 µM | 13.2 µM | 7.97 µM | > 25 µM | – | > 25 µM | 11.1 µM | > 25 µM | > 25 µM
O=C1C2C(C(=O)N1c1ccccc1)C1([N+](=O)[O-])C=C3c4ccccc4N(C(=O)c4ccccc4)C32C2C(=O)N(c3ccccc3)C(=O)C21 (stereo unspecified) | > 100 µM | > 100 µM | > 100 µM | > 100 µM | > 100 µM | > 100 µM | > 100 µM | > 100 µM | – | – | – | – | – | – | – | – | – | – | – | –
CCCCCCCCCNC(=O)/C=C/c1ccc(O)c(O)c1 | 24.3 µM | > 100 µM | 29 µM | 14.9 µM | – | 32.1 µM | 23.6 µM | 54.3 µM | 15.3 µM | 5.95 µM | 33.3 µM | 11 µM | 1.42 µM | 3.61 µM | 36.2 µM | – | 9.02 µM | 17 µM | 82.1 µM | 16.2 µM
O=NNc1ccc(Sc2ccc(NN=O)cn2)nc1 | > 100 µM | > 100 µM | – | > 100 µM | > 100 µM | > 100 µM | > 100 µM | > 100 µM | – | – | – | – | – | – | > 100 µM | – | – | – | > 100 µM | –
Cc1cccc(C(C)(C)C)c1NC(=O)CCc1nc(=S)[nH][nH]1 | > 100 µM | > 100 µM | > 100 µM | > 100 µM | > 100 µM | > 100 µM | > 100 µM | > 100 µM | – | – | – | – | – | – | – | – | – | – | – | –
CC(C)(C)c1ccc(OCCOCCOc2ccc(C(C)(C)C)cc2S(=O)(=O)Nc2ccc([N+](=O)[O-])cc2)c(S(=O)(=O)Nc2ccc([N+](=O)[O-])cc2)c1 | > 100 µM | > 100 µM | > 100 µM | > 100 µM | > 100 µM | 90.9 µM | > 100 µM | > 100 µM | – | – | – | – | – | – | – | – | – | – | – | –
